Entries after “also recorded” stand apart in the source; their conditions may differ.
Experiments:
human plasma BChE = target: T1, human plasma BChE (Homo sapiens, UniProt P06276); experiment: BChE inhibition, IC(50) by logit plot; type: biochemical; conditions: BChE compared with AChE
T1 construct: human plasma BChE; from tissue; host or cells: human plasma
Description: The IC (50) values can be determined for such inhibitors using methods well known in the art. In such assay the pharmacological activity of each compound, as an IC (50), defined as the concentration, in nanomoles, required to inhibit 50% of the enzyme activity of AChE and BChE, is determined separately. For determination of IC (50) values, the enzyme activity of each concentration was expressed as a percent of that determined in the absence of each compound. This then was transformed into a logit format, where logit=In (% activity/[100-% activity]), and was plotted as a function of the log concentration of the compound. IC (50) values (i.e., logit=In (50/[100−5O]=0) were determined only from correlation coefficients (r^2) of less than −0.985 and when more than 50% inhibition was achieved from duplicate samples. The selectivity ratio is then determined by comparing the IC (50) values obtained for each compound with AChE to that for BChE.

[1] = system: βAPP in human neuroblastoma cell lines; experiment: Cellular and secreted βAPP levels by immunoblot; type: cell-based
Description: In further studies, the actions of selective AChE (Compounds 2, 3, (phenserine and tolserine) Table 1) and BChE (Compound 4 (cymserine), Table 1) inhibitors were assessed against human neuroblastoma cell lines. Both secreted levels, measured in the conditioned medium, and cellular levels of βAPP, measured in the cell lysates, were assessed and compared to levels achieved in untreated cells.
A methodology that can be employed to determine the ability of a selected compound to regulate cellular and secreted βAPP levels is as follows:
1 to 1.5×10^7 of each cell type (neuronal and non-neuronal) are cultured in their respective medium. Before adding drug, the cells are fed with media containing only 0.5% of FBS (low serum). The cells are then incubated either in the absence or presence of the test compound. Following incubation periods from 12 to 48 hours, the conditioned medium from each plate is collected and both it and the cells are centrifuged at 800 g. for 10 minutes. The conditioned medium is collected and the cells lysed in buffer containing 50 mM Tris-Cl (pH 8.0), 150 mM NaCl, 5 mM EDTA, 2 mM PMSF, 0.5% sodium deoxycholate, 1 ug/ml each of aprotonin, leupeptin and TLCK, and 0.1 ug/ml of pepstatin A. The cells are centrifuged for 10 min at 11,000 g at 4° C. Proteins of the supernatant solution (cell lysate) are measured by the Bradford dye-binding procedure (Bradford, Anal. Biochem. 72: 248-254, 1976).
For polyacrylamide gel electrophoresis and immunoblotting: in control experiments, an equivalent concentration of ethanol was used as a vehicle which is less than 1% in media. Compound dosages of from about 0.15 mM to 0.5 mM may be used. 100 uL of conditioned media or 30 ug of protein from the total cell lysate is separated on a 12% polyacrylamide gel containing SDS (SDS-PAGE). Immunoblot analysis was performed using the avidinbiotyinylated complex detection kit of Vector Laboratories as described by Lahiri, et al., J. Neurosci: Res. 12:777-787 (1994). The antisera employed is from the mAb22C11 clone (Boehringer Mannheim) which recognizes all mature forms of βAPP found in cell membranes as well as the carboxyltruncated soluble forms secreted into the conditioned media and the APP-like protein. Additionally, the mAb6E10 is employed which recognizes residues 1 to 28 of Aβ. […] Biotinylated secondary antibodies, horse anti-mouse and goat anti-rabbit (Boehringer Mannheim, and Vector Labs) are also used.

secreted βAPP in CSF = experiment: CSF βAPP in rats with or without forebrain cholinergic (nbM) lesions; type: in vivo, rat
Source text: Cymserine, a representative of selective BChE inhibitors, additionally alters βAPP synthesis/processing in vivo.
A methodology that can be employed to determine the ability of a selected compound to regulate secreted βAPP levels in vivo is as follows:
For forebrain cholinergic system lesions, rats receive a unilateral subcortical lesion of the nucleus basalis of Meynert (nbM) using N-methyl-D-aspartate (NMDA) as an excitotoxin. In undertaking this, rats are anesthetized and placed in a stereotaxic apparatus with the upper incisor bar set level with the intra-aural line. A 33 gauge infusion cannula is lowered into two sites within the nbM on one side of the brain (AP bregma, ML −2.8 mm, DV −8.0 mm re: skull and AP bregma −0.8 mm, ML −3.0 mm, DV −7.8 mm, respectively). One microliter of a solution of 50 mM NMDA in PBS buffer (physiological pH) is slowly infused into each site. Controls for the lesion are vehicle alone and the contralateral side of NMDA treated animals.
Collection of CSF for analysis of βAPP levels is undertaken by withdrawal of an aliquot from the cistern magna of rats immediately following their death. Quantitation of βAPP is undertaken by immunoblot analysis utilizing mAb22C11.

[2] = system: aged Fischer-344 (F344) rats; experiment: One-way active avoidance pretraining in straight runway; type: in vivo, rat; conditions: for mean (s.e.m.) avoidances: pretraining, i.p. daily
Source text: (§1) Male F344 rats 21-22 months old were obtained from Harlan-Sprague-Dawley under contract from the National Institute on Aging. They were maintained two per cage in a vivarium at the Gerontology Research Center under specific pathogen free conditions as characterized previously.
(§2) As previously described, the Stone maze is constructed of translucent plastic with a grid floor wired for scrambled foot shocks and is surrounded by gray walls to reduce availability of extra-maze cues. The only other apparatus was a straight runway (2 m) used for pretraining. Similar to the maze, the runway was also constructed of translucent plastic, and contained a grid floor wired for scrambled foot shocks, and was surrounded by gray walls.
(§3) […] On days 3-5 injections were made 30 min prior to behavioral testing.
Beginning on day 2 rats were provided training in one-way active avoidance in the straight runway. On each trial, the rat had to locomote from the start box to the goal box within 10 s to avoid the onset of foot shock (0.8 mA). Rats received 10 trials on day 2 and 10 trials on day 3. Training was terminated when the rat met a performance criteria of eight avoidances within 10 consecutive trials within a maximum of 30 trials. Only rats meeting this criterion were tested in the Stone maze on the next day.

[3] = Brain and plasma time-dependent kinetics by HPLC; type: in vivo; conditions: rat
Description: Determination of the brain and plasma time-dependent kinetics of cymserine in the rats is undertaken by administering compound into the saphenous vein of anesthetized animals. Animals are killed by excess anesthetic at specific times and blood and brain samples are immediately taken. The blood is centrifuged (10,000 g, 2 min), plasma is collected and, together with the sample of brain, is stored at −80° C. Quantitation of concentrations of cymserine is undertaken by high performance liquid chromatography.

[4] = system: aged Fischer-344 (F344) rats; experiment: 14-unit T-maze (Stone maze) learning; type: in vivo, rat
Source text: In the present study we assessed the effects of chronic cymserine treatment (5 days) on performance of aged Fischer-344 (F344) rats (21-22 months old) in a 14-unint T-maze, referre to as the Stone maze.
as §1, §2, §3
Rats received training in the Stone maze scheduled as a 4-trial session during the morning and afternoon on days 4 and 5. During each trial, the rat had to locomote from a start box to a goal box through five maze segments each separated by guiiltine doors. The reinforcement contingency required the rat to negotiate each segment within 10 s to avoid the onset of mild foot shock (0.8 mA), which was terminated when the animal moved through the door into the next segment. After entry into succeeding segments, the door from the preceding segment was closed to prevent backtracking. Recorded as deviations from the correct pathway, errors were the primary dependent variable and were counted automatically by a series of infrared sensors connected to a microprocessor. Run time from the start box to the goal was also recorded automatically. The frequency and duration of foot shock were recorded on a mechanically operated clock.

[5] = system: βAPP secretion, glioblastoma, HeLa, neuroblastoma and PCI2 cell lines; conditions: neuronal cells treated with cholinesterase inhibitors; cited from earlier work
[6] = 1.0 mg kg, blocks 3 and 4 vs controls

T1 sequence (P06276 29-602): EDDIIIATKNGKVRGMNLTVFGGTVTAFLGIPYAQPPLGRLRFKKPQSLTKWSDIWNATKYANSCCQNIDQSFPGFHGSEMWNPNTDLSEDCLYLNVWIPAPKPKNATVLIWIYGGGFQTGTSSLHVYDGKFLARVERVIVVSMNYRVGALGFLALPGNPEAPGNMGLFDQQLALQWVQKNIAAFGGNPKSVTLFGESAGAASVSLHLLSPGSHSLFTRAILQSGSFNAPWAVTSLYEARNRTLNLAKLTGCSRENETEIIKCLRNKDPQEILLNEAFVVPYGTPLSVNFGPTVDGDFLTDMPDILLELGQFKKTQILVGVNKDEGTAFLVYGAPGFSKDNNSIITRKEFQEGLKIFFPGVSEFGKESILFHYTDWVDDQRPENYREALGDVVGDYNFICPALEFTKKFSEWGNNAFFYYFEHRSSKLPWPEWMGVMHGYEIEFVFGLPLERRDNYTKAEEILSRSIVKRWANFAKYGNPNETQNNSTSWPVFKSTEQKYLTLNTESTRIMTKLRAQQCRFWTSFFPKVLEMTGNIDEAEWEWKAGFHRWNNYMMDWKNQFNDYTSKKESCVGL

CNC(=O)Oc1ccc2c(c1)C1(C)CCN(C)C1N2Cc1ccccc1 (stereo not drawn) [Compound 30, N^8-benzylnorphysostigmine]
selectivity of inhibitory action for BChE versus AChE (human plasma BChE): potent and selective inhibitors of BChE

3′-methyl-carbamoyl eseroline
selectivity of inhibitory action for BChE versus AChE (human plasma BChE): does not provide BChE selectivity

CNC(=O)Oc1ccc2c(c1)[C@]1(C)CCN(C)C1N2 (stereo partly drawn) [Compound 34, N^8-norphysostigmine]
selectivity of inhibitory action for BChE versus AChE (human plasma BChE): potent and selective inhibitors of BChE

CNC(=O)Oc1ccc2c(c1)[C@]1(C)CCS[C@@H]1N2C [Compound 22, thiaphysovenine]
selectivity of inhibitory action for BChE versus AChE (human plasma BChE): selectivity of inhibitory action for BChE

C=CCN1CCC2(C)c3cc(OC(=O)NC)ccc3N(C)C12 (stereo not drawn) [Compound 20, N^1-allylnorphysostigmine]
selectivity of inhibitory action for BChE versus AChE (human plasma BChE): provide BChE selectivity

CC(C)c1ccc(NC(=O)Oc2ccc3c(c2)[C@]2(C)CCN(C)[C@@H]2N3C)cc1 [Compound 4, cymserine]
selectivity of inhibitory action for BChE versus AChE (human plasma BChE): selectivity for BChE inhibition | cellular levels of βAPP ([1]; cell lysates, compared to untreated cells): dramatically reduced | secreted βAPP levels ([1]; conditioned medium, compared to untreated cells): reduced | βAPP levels assessed by mAb22C11 and 6E10 ([1]; immunoblot, FIG. 2): dramatically reduce | effect on other secretory proteins, such as HSP-70 ([1]; immunoblot, selectivity control): without affecting | levels of βAPP in CSF (secreted βAPP in CSF; animals without cholinergic lesions, cymserine alone versus pure control rats): reduced | elevation of secreted βAPP in CSF (secreted βAPP in CSF; rats with forebrain cholinergic lesions, intraperitoneal twice daily for 7 days): blocks the elevation | CSF βAPPγ levels (secreted βAPP in CSF; rats, FIG. 3 legend): reduces | effects of drug treatment during pretraining ([2]; all dose groups vs control): No effects | mean (s.e.m.) avoidances ([2]; 1 mg kg cymserine group): 65% (2.8) | mean (s.e.m.) avoidances ([2]; 2 mg kg cymserine group): 63% (3.8) | mean (s.e.m.) avoidances ([2]; 3 mg kg cymserine group): 61% (3.9) | brain levels relative to plasma levels ([3]; 1 mg/kg by the intravenous route): ~40 fold | crossing of the blood-brain barrier ([3]; systemic administration): readily cross the blood-brain barrier | errors across all trials ([4]; 1 mg kg group vs controls): significantly improved performance | shock duration ([4]; 1.0 mg kg, block 2): significantly reduced | run time [4, 6]: significantly reduced | shock duration [4, 6]: significantly reduced | shock frequency [4, 6]: significantly reduced | errors across all trials ([4]; 2 mg kg group vs controls): significantly improved performance | run time ([4]; 2.0 mg kg, block 4): significantly reduced | shock duration ([4]; 2.0 mg kg, block 4): significantly reduced | shock frequency ([4]; 2.0 mg kg, block 4): significantly reduced | errors in the Stone maze ([4]; 3 mg kg dose): least effective | motoric side effects ([4]; 3 mg kg dose, a few rats): fine tremor | shock duration ([4]; 3.0 mg kg, block 4): significantly different from controls | number of errors made in the Stone maze ([4]; all doses, compared with control condition): significantly reduced | learning / cognitive performance of aged rats in the Stone maze ([4]; chronic treatment (5 days)): improves cognitive performance; also recorded: markedly improved | side effects ([4]; doses other than 3 mg kg): no side effects were noted

CNC(=O)Oc1ccc2c(c1)[C@]1(C)CCO[C@@H]1N2C [Compound 26, physovenine]
selectivity of inhibitory action for BChE versus AChE (human plasma BChE): selectivity of inhibitory action for BChE

Cc1ccccc1NC(=O)Oc1ccc2c(c1)[C@]1(C)CCN(C)[C@@H]1N2C [Compound 3, tolserine, reference compound]
selectivity of inhibitory action for BChE versus AChE (human plasma BChE): no selectivity for BChE

COP(=O)(OC)C(O)C(Cl)(Cl)Cl (stereo not drawn) [metrifonate]
secretion of βAPP [5]: none of the other drugs, all classical anticholinesterases, produced a change

Nc1c2c(nc3ccccc13)CCCC2 [tacrine]
secretion of βAPP [5]: reducing it

Nc1ccncc1N [3,4 diaminopyridine]
secretion of βAPP [5]: none of the other drugs, all classical anticholinesterases, produced a change
